Results as given in US11312709B2, “Ghrelin O-acyltransferase inhibitors” (Glaxosmithkline Intellectual Property Development Limited, priority 2018, dated 2022).
pIC50: −log10 of the molar value.

Experiments:
human GOAT = human GOAT (Homo sapiens (Human), UniProt Q96T53); experiment: GOAT TR-FRET (HTRF) inhibition assay, 384-well; assay type: biochemical; details: His-tag human GOAT membrane preparation from sf9 cells; read-out: hGOAT IC50
Description: Compounds contained herein were evaluated for their ability to inhibit the activity of GOAT. GOAT activity was assessed using a time-resolved fluorescence energy transfer (TR-FRET) assay in a 384-well format. His-tag human GOAT enzyme was in the form of a cell membrane preparation from sf9 cells infected with hGOAT-V5-His baculovirus. Varying concentrations of test compound with final DMSO concentration kept to 0.5% were added to membrane solution. Human GOAT membrane activity was established in a buffer having final concentration 0.25 mg/mL in 50 mM MOPS, pH7.5; 50 mM KCl; 0.1 mg/mL BSA; 50 μM CHAPS; and 2 mM EDTA. Substrate solution consisting of biotinylated ghrelin peptide (final concentration 100 nM), octanoyl coA (final concentration 2 μM) and palmitoyl CoA (final concentration 50 μM) was added to initiate the reaction. Plates were sealed, centrifuged for 1 minute at 2000 rpm, then incubated at 30° C. for 80 minutes with gentle shaking on an Eppendorf mix plate. Reaction termination and detection mix consisting of chicken anti-active ghrelin antibody (final concentration of 10 nM), Europium W1024-labeled streptavidin (final concentration of 4 nM), GOAT anti-chicken Dylight (final concentration of 12.5 nM), and GS[DAP-oc]-FL-amide inhibitor (final concentration of 1 μM) was added before further incubation for 40 minutes at 30° C. The plate was then read on an Envision in HTRF mode with excitation filter UV (TRF) 340 and first emission filter of APC 665 and a second emission filter of Europium 615. HTRF readings were acquired as per instrument defined LANCE-DELFIA protocol with a delay and window times of 50 μs for both; number of sequential windows: 1; time between flashes: 2000 μs between each of 100 flashes and 10 flashes for the second detector. The HTRF ratio was calculated directly by the instrument as the ratio of 665 window/615 window. Percent inhibition was calculated as 100−(100×(U−NC)/(PC−NC)) where U was the unknown value HTRF ratio (test compound value), NC was the negative control (100% inhibition value generated from a potent inhibitor), and PC was the positive control (100% activity generated from 0.5% DMSO vehicle). IC50 values were generated in GraphPad Prism (Version 4.03) using non-linear regression curve fit and sigmoidal dose response variable slope analysis.

acyl ghrelin [1] = experiment: Acyl ghrelin reduction in mice (fasting induced); assay type: in vivo; details: 5 doses; for acyl ghrelin reduction: 3 h after final dose, p<0.05
Description: (§1) Normal mice were administered various oral doses of Example 1a on a bid basis for two days (4 doses). Food was withdrawn the evening of the second day after the fourth dose, and then the animals were administered a final dose the morning of the third day. Three hours after this fifth and final dose, blood was collected for ghrelin and acyl ghrelin measurement by ELISA.

acyl ghrelin [2] = experiment: Acyl ghrelin reduction in rats (fasting induced); assay type: in vivo, male SD rats; details: 10 mg/kg, same design as mice
Description: as §1
The same experimental design was conducted in rats administered 10 mg/kg of Example 1a.

acyl ghrelin [3] = experiment: Single-dose PK/PD study, acyl ghrelin reduction in cynomolgus monkeys; assay type: in vivo; details: single oral dose 10 mg/kg, over the first 24 hours, fasted
Description: A single-dose PK/PD study was conducted in cynomolgus monkeys after a 10 mg/kg dose of Example 1a. On day zero, after an overnight fast, three monkeys were administered an oral dose of vehicle, and blood was collected pre-dose and 1, 3, 8, and 24 hours later. The 24 hour time point served as the pre-dose measurement for day 1 when, after an overnight fast, the monkeys were administered a single oral dose of 10 mg/kg Example 1a. Blood was collected at various time points (15 minutes, 30 minutes, 1 hour, 3 hours, 8 hours, 24 hours, 48 hours, 96 hours, and 168 hours) with overnight fasting throughout the study.

acyl ghrelin [4] = experiment: Acyl ghrelin reduction in mice on a high fat, high carb diet; assay type: in vivo, male C57BL/6 mice; details: HFHC diet; for reduction in acyl ghrelin levels compared to Rimonabant followed by vehicle: statistically significant
Description: Normal mice were acclimated to individual housing for two weeks on normal chow diet (20% calories from protein, 35% from carbohydrate, and 45% from fat). All mice except a control group were then switched to a high fat, high carb (HFHC) diet to cause obesity. Mice on the HFHC diet were administered 3 mg/kg Rimonabant once daily for seven days to cause weight loss except for one group that initiated 10 mg/kg Example 1a immediately. Mice that had been treated with Rimonabant were then administered various treatments in the evening for 21 days: vehicle, 3 mg/kg Rimonabant, or 10 mg/kg Example 1a. Mice were fasted overnight and administered a final treatment in the morning. Three hours later, blood was collected for plasma acyl ghrelin and des-acyl ghrelin determination.

[5] = normal mice, various oral doses bid, blood 3 h after final dose, fasted, ELISA
[6] = continuous treatment with 10 mg/kg Example 1a

Chain of human GOAT (Q96T53 whole entry): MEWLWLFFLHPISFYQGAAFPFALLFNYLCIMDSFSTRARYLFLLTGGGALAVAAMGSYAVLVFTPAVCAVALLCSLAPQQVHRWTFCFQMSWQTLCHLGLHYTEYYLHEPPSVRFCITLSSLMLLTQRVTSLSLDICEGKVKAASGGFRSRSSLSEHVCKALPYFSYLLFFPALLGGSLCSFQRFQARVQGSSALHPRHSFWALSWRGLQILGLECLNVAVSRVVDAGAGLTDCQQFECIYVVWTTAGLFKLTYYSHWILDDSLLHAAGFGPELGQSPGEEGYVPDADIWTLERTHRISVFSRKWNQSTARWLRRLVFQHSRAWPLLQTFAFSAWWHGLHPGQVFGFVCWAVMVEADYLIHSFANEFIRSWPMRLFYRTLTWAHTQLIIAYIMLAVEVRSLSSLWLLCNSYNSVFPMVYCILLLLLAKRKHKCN

## N#Cc1ccc2c(n1)CCC2Oc1cc(Cl)c2c(CC(=O)O)csc2c1 (racemic) [Example 8, 2-(4-chloro-6-((2-cyano-6,7-dihydro-5H-cyclopenta[b]pyridin-5-yl)oxy)benzo[b]thiophen-3-yl)acetic Acid]
Human GOAT
  pIC50: > 7.30

## O=C(O)Cc1csc2cc(O[C@H]3CCc4ncccc43)cc(Cl)c12 [Example 1a, (S)-2-(4-chloro-6-((6,7-dihydro-5H-cyclopenta[b]pyridin-5-yl)oxy)benzo[b]thiophen-3-yl)acetic Acid]
Acyl ghrelin [1]; 1 mg/kg oral bid
  acyl ghrelin reduction: statistically significant
Acyl ghrelin [1]; 10 mg/kg oral bid
  acyl ghrelin reduction: statistically significant
Acyl ghrelin [1]; [5]
  acyl ghrelin (dose response): Dose-dependent decreases
  des-acyl ghrelin (dose response): increases
Human GOAT
  pIC50: > 7.30
Acyl ghrelin [2]
  acyl ghrelin levels: significantly reduced
  des-acyl ghrelin levels: increased
Acyl ghrelin [3]
  reduction in the acyl ghrelin AUC relative to vehicle treatment: 51%
Acyl ghrelin [4]; 10 mg/kg Example 1a for 21 days after 7 days of 3 mg/kg Rimonabant
  reduction in acyl ghrelin levels compared to Rimonabant followed by vehicle: 61%
Acyl ghrelin [4]; both Example 1a treatments (10 mg/kg)
  des-acyl ghrelin levels relative to Rimonabant followed by vehicle treatment: statistically significantly elevated
Acyl ghrelin [4]; [6]
  reduction in acyl ghrelin compared to vehicle treatment alone: 28%
  reduction in acyl ghrelin levels compared to Rimonabant followed by vehicle: 57%

## O=C(O)Cc1csc2cc(O[C@@H]3CCc4ncccc43)cc(Cl)c12 [Example 1b, (R)-2-(4-chloro-6-((6,7-dihydro-5H-cyclopenta[b]pyridin-5-yl)oxy)benzo[b]thiophen-3-yl)acetic acid]
Human GOAT
  pIC50: > 5.30

## Cc1ccc2c(n1)CC[C@@H]2Oc1cc(Cl)c2c(CC(=O)O)csc2c1 [Example 2a, (S)-2-(4-chloro-6-((2-methyl-6,7-dihydro-5H-cyclopenta[b]pyridin-5-yl)oxy)benzo[b]thiophen-3-yl)acetic acid]
Human GOAT
  pIC50: > 7.30

## Cc1ccc2c(n1)CC[C@H]2Oc1cc(Cl)c2c(CC(=O)O)csc2c1 [Example 2b, (R)-2-(4-chloro-6-((2-methyl-6,7-dihydro-5H-cyclopenta[b]pyridin-5-yl)oxy)benzo[b]thiophen-3-yl)acetic acid]
Human GOAT
  pIC50: > 5.30

## O=C(O)Cc1csc2c(Cl)c(O[C@H]3CCc4nc(Cl)ccc43)cc(Cl)c12 [Example 3a]
Human GOAT
  pIC50: > 6.30

## O=C(O)Cc1csc2c(Cl)c(O[C@@H]3CCc4nc(Cl)ccc43)cc(Cl)c12 [Example 3b]
Human GOAT
  pIC50: > 7.30

## O=C(O)Cc1csc2c(Cl)c(O[C@H]3CCc4nc(C(F)(F)F)ccc43)cc(Cl)c12 [Example 4a]
Human GOAT
  pIC50: > 6.30

## O=C(O)Cc1csc2c(Cl)c(O[C@@H]3CCc4nc(C(F)(F)F)ccc43)cc(Cl)c12 [Example 4b]
Human GOAT
  pIC50: > 7.30

## O=C(O)Cc1csc2c(F)c(O[C@H]3COc4nc(C(F)(F)F)ccc43)cc(Cl)c12 [Example 5a]
Human GOAT
  pIC50: > 5.30

## O=C(O)Cc1csc2c(F)c(O[C@@H]3COc4nc(C(F)(F)F)ccc43)cc(Cl)c12 [Example 5b]
Human GOAT
  pIC50: > 7.30

## O=C(O)Cc1csc2cc(O[C@H]3COc4ncccc43)cc(Cl)c12 [Example 6a]
Human GOAT
  pIC50: > 7.30

## O=C(O)Cc1csc2cc(O[C@@H]3COc4ncccc43)cc(Cl)c12 [Example 6b]
Human GOAT
  pIC50: > 7.30

## O=C(O)Cc1csc2c(Cl)c(O[C@H]3COc4ncccc43)cc(Cl)c12 [Example 7a]
Human GOAT
  pIC50: > 5.30

## O=C(O)Cc1csc2c(Cl)c(O[C@@H]3COc4ncccc43)cc(Cl)c12 [Example 7b]
Human GOAT
  pIC50: > 7.30

## NC(=O)c1ccc2c(n1)CC[C@@H]2Oc1cc(Cl)c2c(CC(=O)O)csc2c1 [Example 9a]
Human GOAT
  pIC50: > 6.30

## NC(=O)c1ccc2c(n1)CC[C@H]2Oc1cc(Cl)c2c(CC(=O)O)csc2c1 [Example 9b]
Human GOAT
  pIC50: > 7.30

## Cc1c(C(=O)NN2CCCCC2)nn(-c2ccc(Cl)cc2Cl)c1-c1ccc(Cl)cc1 [Rimonabant, reference compound]
Acyl ghrelin [4]; 3 mg/kg Rimonabant treatment alone, not as much as with Example 1a
  acyl ghrelin levels (so in the source); context is des-acyl ghrelin, FIG. 8): increased
